The values below come from EP3807270B1, “NOVEL HETEROARYL HETEROCYCLYL COMPOUNDS FOR THE TREATMENT OF AUTOIMMUNE DISEASE” (F. Hoffmann-La Roche AG, priority 2018, dated 2019).

For data set [1], the target named is T1, hTLR9 (Homo sapiens, UniProt Q9NR96).
T1 sequence (Q9NR96 26-1032): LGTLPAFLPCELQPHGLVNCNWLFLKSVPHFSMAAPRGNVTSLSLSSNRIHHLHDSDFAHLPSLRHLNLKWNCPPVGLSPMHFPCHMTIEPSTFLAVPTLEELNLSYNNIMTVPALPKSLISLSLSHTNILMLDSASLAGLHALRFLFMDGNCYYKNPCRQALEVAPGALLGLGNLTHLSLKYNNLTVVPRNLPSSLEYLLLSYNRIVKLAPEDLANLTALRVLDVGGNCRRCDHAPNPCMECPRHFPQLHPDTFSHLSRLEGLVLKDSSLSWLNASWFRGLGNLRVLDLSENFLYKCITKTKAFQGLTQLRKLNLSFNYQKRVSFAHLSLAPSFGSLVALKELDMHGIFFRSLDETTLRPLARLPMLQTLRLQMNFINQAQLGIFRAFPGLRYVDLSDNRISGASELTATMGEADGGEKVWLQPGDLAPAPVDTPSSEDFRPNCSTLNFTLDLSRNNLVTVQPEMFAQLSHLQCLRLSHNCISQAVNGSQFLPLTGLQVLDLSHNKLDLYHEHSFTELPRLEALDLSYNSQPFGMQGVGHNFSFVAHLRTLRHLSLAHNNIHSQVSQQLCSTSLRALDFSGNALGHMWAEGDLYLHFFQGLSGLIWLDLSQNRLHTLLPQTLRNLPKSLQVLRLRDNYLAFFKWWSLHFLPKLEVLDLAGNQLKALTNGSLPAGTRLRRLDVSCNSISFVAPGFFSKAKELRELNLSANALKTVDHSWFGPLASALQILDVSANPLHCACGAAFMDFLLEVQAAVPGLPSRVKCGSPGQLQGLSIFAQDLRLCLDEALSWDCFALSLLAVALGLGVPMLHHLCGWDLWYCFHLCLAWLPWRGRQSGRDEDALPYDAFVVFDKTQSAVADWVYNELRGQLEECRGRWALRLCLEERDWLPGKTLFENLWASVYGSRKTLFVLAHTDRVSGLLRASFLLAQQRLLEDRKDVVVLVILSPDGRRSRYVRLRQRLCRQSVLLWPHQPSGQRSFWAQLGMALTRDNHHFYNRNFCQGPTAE
Set-up: host or cells: HEK. As to conditions: data disclosed in US20150105370; read-out: HEK/hTLR9 IC50; cited from earlier work.

Data set [2] deals with T2, hTLR7 (Homo sapiens, UniProt Q9NYK1).
T2 sequence (Q9NYK1 27-1049): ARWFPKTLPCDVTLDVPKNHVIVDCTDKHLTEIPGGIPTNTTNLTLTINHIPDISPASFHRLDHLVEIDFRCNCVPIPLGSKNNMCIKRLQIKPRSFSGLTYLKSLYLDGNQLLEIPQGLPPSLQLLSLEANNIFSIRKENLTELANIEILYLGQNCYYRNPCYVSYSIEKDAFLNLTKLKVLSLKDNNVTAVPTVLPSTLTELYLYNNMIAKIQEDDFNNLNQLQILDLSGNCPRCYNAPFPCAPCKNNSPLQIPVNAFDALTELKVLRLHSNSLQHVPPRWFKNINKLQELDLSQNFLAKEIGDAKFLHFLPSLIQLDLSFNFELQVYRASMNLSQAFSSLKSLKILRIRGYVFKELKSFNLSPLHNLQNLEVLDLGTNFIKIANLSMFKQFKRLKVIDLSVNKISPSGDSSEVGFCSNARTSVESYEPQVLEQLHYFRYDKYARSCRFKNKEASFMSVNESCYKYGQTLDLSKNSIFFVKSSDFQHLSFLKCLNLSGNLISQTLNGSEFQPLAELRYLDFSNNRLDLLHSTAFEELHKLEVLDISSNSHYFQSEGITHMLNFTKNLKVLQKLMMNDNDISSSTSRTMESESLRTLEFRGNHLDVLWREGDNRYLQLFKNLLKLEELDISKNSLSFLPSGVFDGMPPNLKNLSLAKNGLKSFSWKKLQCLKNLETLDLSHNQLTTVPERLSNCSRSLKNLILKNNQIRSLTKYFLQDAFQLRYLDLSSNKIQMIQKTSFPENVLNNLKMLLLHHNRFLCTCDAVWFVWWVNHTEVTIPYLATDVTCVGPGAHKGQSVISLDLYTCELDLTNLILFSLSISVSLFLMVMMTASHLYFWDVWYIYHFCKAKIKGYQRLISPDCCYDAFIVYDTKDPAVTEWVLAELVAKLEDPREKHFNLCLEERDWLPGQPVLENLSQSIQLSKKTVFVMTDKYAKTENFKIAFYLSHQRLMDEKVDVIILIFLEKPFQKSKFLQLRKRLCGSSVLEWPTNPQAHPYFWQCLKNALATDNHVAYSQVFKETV
Also noted: host or cells: HEK. As to conditions: data disclosed in US20150105370; read-out: HEK/hTLR7 IC50; cited from earlier work.

For data set [3], the target named is T3, hERG channel (Homo sapiens, UniProt Q12809).
T3 construct: expressed in transfected cells; host or cells: CHO (Chinese hamster ovary)
Briefly: hERG channel inhibition assay (patch-clamp, CHO hERG cells). In kind it is cell-based. As to conditions: for pIC50 / IC20: CHO hERG cells, whole-cell patch-clamp; for IC20: human, CHO cells stably expressing hERG; for hERG IC20 / TLR7 IC50 / hERG IC20 / TLR9 IC50: safety ratio; for hERG IC20 / TLR7 IC50: TLR7 IC50 of ER compounds from Table 1; for hERG IC20 / TLR9 IC50: TLR9 IC50 of ER compounds from Table 1. On the procedure:
The hERG K^+ channels were cloned in humans and stably expressed in a CHO (Chinese hamster ovary) cell line. CHOhERG cells were used for patch-clamp (voltage-clamp, whole-cell) experiments. Cells were stimulated by a voltage pattern to activate hERG channels and conduct IKhERG currents (rapid delayed outward rectifier potassium current of the hERG channel). After the cells were stabilized for a few minutes, the amplitude and kinetics of IKhERG were recorded at a stimulation frequency of 0.1 Hz (6 bpm). Thereafter, the test compound was added to the preparation at increasing concentrations. For each concentration, an attempt was made to reach a steady-state effect, usually, this was achieved within 3-10 min at which time the next highest concentration was applied. The amplitude and kinetics of IKhERG are recorded in each concentration of the drug which were compared to the control values (taken as 100%). (references: Redfern WS, Carlsson L, Davis AS, Lynch WG, MacKenzie I, Palethorpe S, Siegl PK, Strang I, Sullivan AT, Wallis R, Camm AJ, Hammond TG. 2003; Relationships between preclinical cardiac electrophysiology, clinical QT interval prolongation and torsade de pointes for a broad range of drugs: evidence for a provisional safety margin in drug development. Cardiovasc. Res. 58:32-45, Sanguinetti MC, Tristani-Firouzi M. 2006; hERG potassium channels and cardiac arrhythmia. Nature 440:463-469, Webster R, Leishman D, Walker D. 2002; Towards a drug concentration effect relationship for QT prolongation and torsades de pointes. Curr. Opin. Drug Discov. Devel. 5:116-26).
Table 3. hERG and safety ratio results
In general terms: hERG is a cardiac potassium channel; its block is linked to QT prolongation.

A short description of data set [4]: Human microsome stability assay. As to conditions: 1 µM test compound, 0.5 mg/mL liver microsomal protein, 37 °C. In kind it is in vitro ADME. Here is the method:
The human microsomal stability assay is used for early assessment of metabolic stability of a test compound in human liver microsomes.
Human liver microsomes (Cat.NO.: 452117, Corning, USA;Cat.NO.:H2610, Xenotech, USA) were preincubated with test compound for 10 minutes at 37 °C in 100 mM potassium phosphate buffer, pH 7.4. The reactions were initiated by adding NADPH regenerating system. The final incubation mixtures contained 1 µM test compound, 0.5 mg/mL liver microsomal protein, 1 mM MgClz, 1 mM NADP, 1 unit/mL isocitric dehydrogenase and 6 mM isocitric acid in 100 mM potassium phosphate buffer, pH 7.4. After incubation times of 0, 3, 6, 9, 15 and 30 minutes at 37 °C, 300 µL of cold acetonitrile (including internal standard) was added to 100 µL incubation mixture to terminate the reaction. Following precipitation and centrifugation, the amount of compound remaining in the samples were determined by LC-MS/MS. Controls of no NADPH regenerating system at zero and 30 minutes were also prepared and analyzed. […] Table 6. Human liver microsome stability of the compounds of present invention
For orientation: Microsomes from liver hold many membrane-bound enzymes, among them those of drug oxidation.

pIC50: −log10 of the molar value.

T3 sequence (Q12809 whole entry): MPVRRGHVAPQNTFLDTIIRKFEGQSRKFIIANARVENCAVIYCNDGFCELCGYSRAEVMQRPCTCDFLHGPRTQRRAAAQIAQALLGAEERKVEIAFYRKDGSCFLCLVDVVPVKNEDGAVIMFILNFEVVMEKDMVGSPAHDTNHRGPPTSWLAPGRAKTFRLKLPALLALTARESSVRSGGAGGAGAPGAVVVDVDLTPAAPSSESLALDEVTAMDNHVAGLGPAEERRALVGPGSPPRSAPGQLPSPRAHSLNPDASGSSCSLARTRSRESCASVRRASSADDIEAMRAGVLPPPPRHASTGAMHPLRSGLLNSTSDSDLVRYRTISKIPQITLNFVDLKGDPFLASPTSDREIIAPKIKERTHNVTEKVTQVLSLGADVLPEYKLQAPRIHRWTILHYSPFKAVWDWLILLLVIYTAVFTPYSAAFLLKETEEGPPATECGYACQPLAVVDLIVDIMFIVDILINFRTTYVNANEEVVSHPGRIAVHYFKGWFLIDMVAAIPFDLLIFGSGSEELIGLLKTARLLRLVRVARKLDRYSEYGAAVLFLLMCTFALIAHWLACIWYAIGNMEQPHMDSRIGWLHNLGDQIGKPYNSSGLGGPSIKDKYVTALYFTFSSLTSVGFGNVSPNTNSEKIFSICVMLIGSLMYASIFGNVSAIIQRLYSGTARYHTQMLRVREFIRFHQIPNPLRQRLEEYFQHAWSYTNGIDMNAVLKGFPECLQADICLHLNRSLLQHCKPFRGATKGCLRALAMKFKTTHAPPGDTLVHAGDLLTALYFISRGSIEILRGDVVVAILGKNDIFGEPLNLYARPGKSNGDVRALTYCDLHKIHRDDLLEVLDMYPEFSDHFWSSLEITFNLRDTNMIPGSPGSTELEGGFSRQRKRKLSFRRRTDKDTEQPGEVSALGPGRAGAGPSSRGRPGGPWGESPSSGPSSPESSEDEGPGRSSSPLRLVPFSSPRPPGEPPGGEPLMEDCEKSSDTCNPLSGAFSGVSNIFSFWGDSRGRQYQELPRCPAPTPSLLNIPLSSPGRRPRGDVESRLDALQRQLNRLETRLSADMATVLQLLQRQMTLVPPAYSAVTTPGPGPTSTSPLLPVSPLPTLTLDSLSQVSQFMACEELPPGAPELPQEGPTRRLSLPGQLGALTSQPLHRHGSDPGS

As to `C[C@@H]1CN(c2ccc(C#N)c3ncccc23)C[C@H](CN2CC[C@@H](NC(=O)c3ccccc3)C2)O1` [ER-894544], the pIC50 in data set [1] is below 5.21; in data set [2], 7.37.

As to `C[C@@H]1CN(c2ccc(C#N)c3ncccc23)C[C@H](CN2CC(NS(=O)(=O)c3ccc(F)cc3)C2)O1` [ER-894155], the pIC50 in data set [1] is below 5.00; in data set [2], 6.55.

A word on the IC20: it is the concentration at which the effect reaches the 20% level. A higher IC20 goes with weaker potency. As to `C[C@@H]1CN(c2ccc(C#N)c3ncccc23)C[C@H](CN2CCN(c3ccccc3)CC2)O1` [ER-887258, reference compound], in data set [3], the pIC50 was 5.56, the IC20 was 687 nM, the “hERG IC20 / TLR7 IC50” value was determined as 8.1 and the “hERG IC20 / TLR9 IC50” value worked out at 0.3. Besides, the pIC50 in data set [1] was below 5.70. Also, in data set [4], the “Clearance of Human microsome” value is 17.86 mL/min/kg. Moreover, in data set [2], the pIC50 was 7.07.

In the case of `C[C@@H]1CN(c2ccc(C#N)c3ncccc23)C[C@H](CN2CCN(c3ccccn3)CC2)O1` [ER-888285, reference compound], in data set [3], the pIC50 is 5.51, the IC20 was determined as 1010 nM, the “hERG IC20 / TLR7 IC50” value is 8.4 and the “hERG IC20 / TLR9 IC50” value is listed as 0.5. In addition, the pIC50 in data set [1] was below 5.70. The “Clearance of Human microsome” value in data set [4] is given as 17.15 mL/min/kg. For the same molecule, in data set [2], the pIC50 was 6.92.

Turning to `Cc1nn(C)cc1S(=O)(=O)NC1CCN(C[C@H]2CN(c3ccc(C#N)c4ncccc34)C[C@@H](C)O2)CC1` [ER-894160], the pIC50 in data set [1] was below 5.00; in data set [2] it was 6.70.
